Assay results published in paper PMC11412156 (Journal of medicinal chemistry, 2024).

Columns and labels:
Format in all cases: biochemical
HDAC1 = HDAC1 (Homo sapiens, UniProt Q13547); assay: HDAC enzyme-based fluorogenic assay, HDAC1; conditions: read-out: HDAC1 IC50; mean of at least three experiments
HDAC2 = HDAC2 (Homo sapiens, UniProt Q92769); assay: HDAC enzyme-based fluorogenic assay, HDAC2; conditions: read-out: HDAC2 IC50; mean of at least three experiments
HDAC3 = HDAC3 (Homo sapiens, UniProt O15379); assay: HDAC enzyme-based fluorogenic assay, HDAC3; conditions: read-out: HDAC3 IC50; mean of at least three experiments
Chain of HDAC3 (O15379 whole entry): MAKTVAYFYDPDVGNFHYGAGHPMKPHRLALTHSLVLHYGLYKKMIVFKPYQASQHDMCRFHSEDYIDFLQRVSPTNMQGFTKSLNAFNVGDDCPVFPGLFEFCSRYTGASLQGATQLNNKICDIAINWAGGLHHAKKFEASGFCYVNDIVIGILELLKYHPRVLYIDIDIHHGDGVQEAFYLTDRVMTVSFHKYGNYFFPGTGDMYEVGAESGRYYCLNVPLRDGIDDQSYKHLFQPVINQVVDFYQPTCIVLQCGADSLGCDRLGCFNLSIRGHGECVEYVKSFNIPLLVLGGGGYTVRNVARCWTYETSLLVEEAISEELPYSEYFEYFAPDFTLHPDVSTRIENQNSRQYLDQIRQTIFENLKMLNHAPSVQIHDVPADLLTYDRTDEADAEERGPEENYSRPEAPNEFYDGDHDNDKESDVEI
Chain of HDAC3 (Q9Y618 395-489 partner limits assumed): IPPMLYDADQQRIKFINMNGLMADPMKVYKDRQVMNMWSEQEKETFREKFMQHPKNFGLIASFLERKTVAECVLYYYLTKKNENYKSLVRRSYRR

HDAC6 = target: T1, HDAC6 (Homo sapiens, UniProt Q9UBN7); assay: HDAC enzyme-based fluorogenic assay, HDAC6; conditions: for HDAC6 inhibitor rate: final concentration of 2 μM, preliminary screen; for IC50: read-out: HDAC6 IC50, mean of at least three experiments
T1 sequence (Q9UBN7 1-1215): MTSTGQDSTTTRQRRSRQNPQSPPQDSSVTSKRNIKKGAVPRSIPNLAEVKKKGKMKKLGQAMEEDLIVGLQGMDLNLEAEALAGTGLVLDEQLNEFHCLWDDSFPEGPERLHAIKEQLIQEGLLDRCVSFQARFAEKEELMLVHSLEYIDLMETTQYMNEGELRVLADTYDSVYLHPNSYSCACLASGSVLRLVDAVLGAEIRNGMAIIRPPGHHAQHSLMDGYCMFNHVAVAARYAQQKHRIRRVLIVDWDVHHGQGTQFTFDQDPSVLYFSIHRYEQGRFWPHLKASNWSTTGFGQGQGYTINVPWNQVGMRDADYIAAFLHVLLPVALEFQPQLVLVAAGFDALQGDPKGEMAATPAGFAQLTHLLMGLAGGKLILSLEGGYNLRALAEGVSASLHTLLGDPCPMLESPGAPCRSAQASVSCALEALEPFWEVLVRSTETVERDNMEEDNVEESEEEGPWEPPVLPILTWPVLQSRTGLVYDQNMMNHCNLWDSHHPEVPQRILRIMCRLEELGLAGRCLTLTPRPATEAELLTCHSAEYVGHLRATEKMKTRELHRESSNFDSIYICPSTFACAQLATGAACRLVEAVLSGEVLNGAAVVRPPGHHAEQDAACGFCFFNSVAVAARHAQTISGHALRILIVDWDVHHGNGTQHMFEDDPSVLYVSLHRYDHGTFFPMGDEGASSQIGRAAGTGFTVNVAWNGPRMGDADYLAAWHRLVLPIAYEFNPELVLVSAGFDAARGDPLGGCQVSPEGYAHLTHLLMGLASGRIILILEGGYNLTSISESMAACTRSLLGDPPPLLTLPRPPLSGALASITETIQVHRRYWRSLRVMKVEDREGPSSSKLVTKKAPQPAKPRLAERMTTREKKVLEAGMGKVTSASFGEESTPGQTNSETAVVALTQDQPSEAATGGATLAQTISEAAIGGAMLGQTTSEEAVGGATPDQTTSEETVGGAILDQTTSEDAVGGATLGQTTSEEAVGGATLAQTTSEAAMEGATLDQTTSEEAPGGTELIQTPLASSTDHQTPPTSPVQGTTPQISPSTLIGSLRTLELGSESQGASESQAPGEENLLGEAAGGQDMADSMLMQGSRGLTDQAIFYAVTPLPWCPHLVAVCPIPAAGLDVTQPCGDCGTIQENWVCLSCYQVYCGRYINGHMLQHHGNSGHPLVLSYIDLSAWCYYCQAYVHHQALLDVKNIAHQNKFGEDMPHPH

HDAC8 = target: T2, HDAC8 (Homo sapiens, UniProt Q9BY41); assay: HDAC enzyme-based fluorogenic assay, HDAC8; conditions: read-out: HDAC8 IC50; mean of at least three experiments
T2 sequence (Q9BY41 1-377): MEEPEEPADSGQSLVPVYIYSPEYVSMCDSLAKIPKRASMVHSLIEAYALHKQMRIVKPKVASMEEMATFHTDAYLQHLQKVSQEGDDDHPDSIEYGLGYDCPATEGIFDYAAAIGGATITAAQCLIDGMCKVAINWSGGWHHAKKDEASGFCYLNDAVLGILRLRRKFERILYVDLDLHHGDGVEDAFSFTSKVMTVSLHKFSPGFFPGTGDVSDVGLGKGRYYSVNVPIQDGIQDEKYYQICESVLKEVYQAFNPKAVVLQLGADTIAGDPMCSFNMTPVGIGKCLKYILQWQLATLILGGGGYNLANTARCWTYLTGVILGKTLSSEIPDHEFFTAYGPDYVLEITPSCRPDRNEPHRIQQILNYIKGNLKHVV

HDAC11 = target: T3, HDAC11 (Homo sapiens, UniProt Q96DB2); assay: HDAC enzyme-based fluorogenic assay, HDAC11; conditions: read-out: HDAC11 IC50; mean of at least three experiments
T3 sequence (Q96DB2 1-347): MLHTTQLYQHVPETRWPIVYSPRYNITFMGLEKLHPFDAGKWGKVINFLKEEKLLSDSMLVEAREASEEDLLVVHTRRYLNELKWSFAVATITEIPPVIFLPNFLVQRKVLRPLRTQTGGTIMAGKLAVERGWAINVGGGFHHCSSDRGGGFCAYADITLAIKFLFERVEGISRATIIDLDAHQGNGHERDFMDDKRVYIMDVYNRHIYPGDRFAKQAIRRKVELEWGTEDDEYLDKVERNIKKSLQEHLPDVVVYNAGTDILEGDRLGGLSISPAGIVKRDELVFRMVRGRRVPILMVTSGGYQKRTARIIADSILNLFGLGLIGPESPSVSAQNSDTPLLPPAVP

Chain of HDAC1 (Q13547 whole entry): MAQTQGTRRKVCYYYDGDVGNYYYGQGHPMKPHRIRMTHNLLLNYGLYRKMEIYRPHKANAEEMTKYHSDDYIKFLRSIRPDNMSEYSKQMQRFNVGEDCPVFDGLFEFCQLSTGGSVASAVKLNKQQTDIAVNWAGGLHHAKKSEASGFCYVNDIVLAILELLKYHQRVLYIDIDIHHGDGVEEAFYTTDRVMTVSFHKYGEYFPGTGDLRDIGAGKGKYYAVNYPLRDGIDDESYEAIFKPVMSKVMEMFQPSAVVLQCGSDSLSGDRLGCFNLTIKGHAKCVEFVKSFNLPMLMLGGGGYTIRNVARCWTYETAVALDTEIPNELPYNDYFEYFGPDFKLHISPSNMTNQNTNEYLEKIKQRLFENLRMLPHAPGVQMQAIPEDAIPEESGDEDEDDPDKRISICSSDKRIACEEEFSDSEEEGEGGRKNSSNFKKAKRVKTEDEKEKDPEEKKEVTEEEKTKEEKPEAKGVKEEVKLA
Chain of HDAC2 (Q92769 whole entry): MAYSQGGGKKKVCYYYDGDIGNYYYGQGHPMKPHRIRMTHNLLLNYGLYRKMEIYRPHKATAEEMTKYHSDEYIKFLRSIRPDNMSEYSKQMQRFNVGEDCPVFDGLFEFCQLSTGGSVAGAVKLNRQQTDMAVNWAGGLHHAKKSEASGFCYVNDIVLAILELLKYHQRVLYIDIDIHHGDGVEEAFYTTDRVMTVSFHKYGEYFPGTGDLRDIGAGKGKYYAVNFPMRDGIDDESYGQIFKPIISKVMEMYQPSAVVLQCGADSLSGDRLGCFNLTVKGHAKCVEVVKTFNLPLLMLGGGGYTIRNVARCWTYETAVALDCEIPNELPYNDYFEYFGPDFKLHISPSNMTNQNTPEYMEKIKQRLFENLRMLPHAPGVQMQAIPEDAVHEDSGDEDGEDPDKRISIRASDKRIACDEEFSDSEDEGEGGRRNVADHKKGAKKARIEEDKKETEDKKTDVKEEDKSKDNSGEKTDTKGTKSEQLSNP

**Q.** How did the IC50 (HDAC1) turn out when `C[C@]12CC3CC(Nc4c(Nc5ccc(C(=O)N6CCC[C@H](C(=O)NCCCCCC(=O)NO)C6)cc5)c(=O)c4=O)(C1)C[C@@](C)(C3)C2` [Compound 40c, (S)-1-(4-((2-(((1r,3R,5S,7r)-3,5-Dimethyladamantan-1-yl)amino)-3,4-dioxocyclobut-1-en-1-yl)amino)benzoyl)-N-(6-(hydroxyamino)-6-oxohexyl)piperidine-3-carbo-xamide] was run?
**A.** The IC50 was 1030 nM.

**Q.** And the IC50 (HDAC2)?
**A.** Its IC50 is 3100 nM.

**Q.** And the IC50 (HDAC3)?
**A.** Its IC50 is 4150 nM.

**Q.** What about the HDAC6 inhibitor rate (HDAC6) of the same compound?
**A.** Its HDAC6 inhibitor rate is 98.49%.

**Q.** And the IC50 (HDAC6)?
**A.** Its IC50 is 282 nM.

**Q.** What about the IC50 (HDAC8) of the same compound?
**A.** Its IC50 is 520 nM.

**Q.** What about the IC50 (HDAC11) of the same compound?
**A.** Its IC50 is 84 nM.

**Q.** What does the source list for `CC12CC3CC(C)(C1)CC(Nc1c(Nc4ccc(C(=O)N5CCC[C@H](C(=O)NCCCCCCC(=O)NO)C5)cc4)c(=O)c1=O)(C3)C2` [Compound 40d, (S)-1-(4-((2-(((1r,3R,5S,7r)-3,5-Dimethyladamantan-1-yl)amino)-3,4-dioxocyclobut-1-en-1-yl)amino)benzoyl)-N-(7-(hydroxyamino)-7-oxoheptyl)piperidine-3-carboxamide]?
**A.** IC50 (HDAC1): 415 nM; IC50 (HDAC2): 2530 nM; IC50 (HDAC3): 1450 nM; HDAC6 inhibitor rate (HDAC6): 99.66%; IC50 (HDAC6): 162 nM; IC50 (HDAC8): 158 nM; IC50 (HDAC11): 241 nM
